Measurements as given in patent US7763580B2, “Methods for treating conditions associated with the accumulation of excess extracellular matrix” (University of Utah Research Foundation, priority 1999, dated 2010).

Experiments:
[1] = system: anti-Thy 1 glomerulonephritis; assay: Glomerular p-Smad2 (Western blot); format: in vivo, Sprague Dawley rats; details: enalapril alone
Experimental: These experiments were performed on male Sprague Dawley rats (200-250 g) obtained from the Sasco colony of Charles River Laboratories (Wilmington, Mass., USA). Animal housing and care were in accordance with the NIH Guide for the Care and Use of Laboratory Animals, NIH Publication No. 85-23, 1985. Animals were fed a normal protein diet (22% protein, Teklad No. 86 550, Teklad Premier Laboratory Diets, Madison, Wis., USA). Glomerulonephritis was induced by tail vein injection of 2.25 mg/Kg of the monoclonal anti-Thy 1.1 antibody OX-7 (NCCC, Biovest International Inc, Minneapolis, Minn., USA). OX-7 binds to a Thy 1-like epitope on the surface of mesangial cells causing complement-dependent cell lysis followed by fibrotic tissue repair (Bagchus et al., Lab Invest. 55:680-687 (1986)). Control animals were injected with similar volumes of phosphate-buffered saline (PBS). Groups of 8 rats were assigned and treated as outlined in Table 2. […] Bound antibodies were detected by developing the blot in ECL™ Western blotting detection reagents (Amersham Pharmacia Biotech) for 1 min. Quantitation of the bands on autoradiograms was performed using a BIO-RAD GS-700 imaging densitometer. Changes in p-Smad2 levels were determined by correcting for the densitometric intensity of β-actin for each sample. […] The percent reduction in disease severity in a treated group was calculated as: […]

[2] = system: anti-Thy 1 glomerulonephritis; assay: Glomerular ED1+ monocyte/macrophage count; format: in vivo, Sprague Dawley rats; details: Enalapril alone, P<0.05
Experimental: These experiments were performed on male Sprague Dawley rats (200-250 g) obtained from the Sasco colony of Charles River Laboratories (Wilmington, Mass., USA). Animal housing and care were in accordance with the NIH Guide for the Care and Use of Laboratory Animals, NIH Publication No. 85-23, 1985. Animals were fed a normal protein diet (22% protein, Teklad No. 86 550, Teklad Premier Laboratory Diets, Madison, Wis., USA). Glomerulonephritis was induced by tail vein injection of 2.25 mg/Kg of the monoclonal anti-Thy 1.1 antibody OX-7 (NCCC, Biovest International Inc, Minneapolis, Minn., USA). OX-7 binds to a Thy 1-like epitope on the surface of mesangial cells causing complement-dependent cell lysis followed by fibrotic tissue repair (Bagchus et al., Lab Invest. 55:680-687 (1986)). Control animals were injected with similar volumes of phosphate-buffered saline (PBS). […] The intensity of glomerular staining of collagen I and fibronectin was evaluated according to a 0 to 4 scale, which has been described in detail previously (Yamamoto et al., Kidney Int. 49:461-469 (1996)). The number of cells per glomerulus, staining positive for the monocyte/macrophage marker ED1, were counted. Thirty glomeruli per sample were evaluated. The mean values with standard error values were calculated. […] The percent reduction in disease severity in a treated group was calculated as: […]

SMILES: CCOC(=O)[C@H](CCc1ccccc1)N[C@@H](C)C(=O)N1CCC[C@H]1C(=O)O [enalapril]
- reduction of Smad2 activation (p-Smad2) [1]: 36%
- reduction of number of ED1+ cells [2]: 62%
